Type in all cases: cell-based
Assay [1] deals with CHP-134 human neuroblastoma cells. The assay can be described thus: Loewe additivity (CHALICE) synergy screen, CellTiter-Glo viability, 7x7 dose matrix. Also on record: key to Max Combo Effect: growth inhibition scale; 100 = stasis. The note with it: for Max Combo Effect: in % (unit assumed). The protocol:
(§1) The synergistic interaction of drug combinations were assessed based on the Loewe Additivity Model using Chalice software [CombinatoRx, Cambridge Mass.]). […] 27:659-66. The software compares the response (% inhibition or % reduction of cell viability) of drug treatment from a combination of two agents to the response of the agents acting alone, against the drug-with-itself dose-additive reference model (the Loewe Additivity Model). Deviations from dose additives can be assessed numerically with a “synergy score” which quantifies the overall strength of combination effect. A synergy score >0 indicates a synergistic combination. In order to ensure only strongly synergistic combinations were selected, the acceptance criteria were set at a higher level. Strongly synergistic combinations were defined as having both a synergy score >2, a synergy score that is twice as large as the background (non-synergy) model would predict, and a maximum efficacy of >100, a value equivalent to stasis, as determined from the growth inhibition calculation.
(§2) After treatment, cell viabilty (quantity of viable cells) for each test mixtures were determined by the CellTiter-Glo® (CTG) luminescent cell viability assay (Promega) described in the Assay section, infra. […] The response to treatment (% reduction of cell viability) was analyzed using Chalice software [CombinatoRx, Cambridge Mass.]). Data evaluation and graph generation were performed using Microsoft Excel software and Chalice software.
(§3) The combinations were tested in duplicate using a 7×7 dose matrix block in 1536 well format with a cell proliferation readout as described in the Assay section infra.
(§4) All synergy calculations were performed using CHALICE software package from Zalicus and potential synergistic interactions between compound combinations were assessed using the Excess Inhibition 2D matrix according to the Loewe additivity model and were reported as synergy score (Table 10) (Lehar et al). Strongly synergistic combination were identified as having both (1) a synergy score greater than 2, a synergy score that is twice as large as the background (non-synergy) model would predict, and (2) a maximum efficacy of >100, a value roughly equivalent to stasis, as determined from the growth inhibition calculation.
(§5) Cell viability were determined by measuring cellular ATP content using the CellTiter-Glo® (CTG) luminescent cell viability assay (Promega). […] Reduced and enhanced luminescent signal values (responses) were calculated relative to untreated (control) cells, and the calculated signal value proportional to the cell viability.
(§6) Synergistic combinations were identified based on the Loewe Addivity Model. To measure the effects of drug combinations on the cell viability, cells from the 20 cell lines listed in Table 1 above were seeded into 1536-well assay plates at a density 300 cells per well in a 7 μL final volume and incubated at 37° C. overnight in a GNF Systems incubator with 95% RH and 5% CO2.
(§7) A six-point dose response curve for the test compounds were prepared in a 384 well ECHO compatible source plate (Labcyte P-05525) with 3-fold serial dilution series. For example, for a six-point dose response curve and a top compound concentration of 5 mM, the concentration of the compounds in the source well were 5 mM, 1.67 mM, 0.56 mM, 0.19 mM, 0.06 mM and 0.02 mM.
(§8) Approximately 18 hours after plating, compound combinations were generated on the fly by transferring 7.5 nL of compound from the pre-diluted source plates using the Labcyte ECHO555 integrated onto the ACP-1 system with replicate plates per cell line; the final DMSO concentration per well was 0.2%. It is noted that the total volume in the wells was 7 μL.
(§9) The well at the intersection of the first column and first row which received no compound was dosed with 2×7.5 nL of DMSO and served as control.

Assay [2] relates to IMR-5 human neuroblastoma cells. The description is as above. The arrangement: key to Max Combo Effect: growth inhibition scale; 100 = stasis. The protocol: as §1, §2, §3, §4, §5, §6, §7, §8, §9
For assay [3], the system named is KELLY human neuroblastoma cells. The assay is described as above. The arrangement: key to Max Combo Effect: growth inhibition scale; 100 = stasis. The note with it: KELLY (F1174L). How it is done:
as §1, §2, §3, §4, §5, §6, §7, §8, §9

In assay [4] the test system is NB-1691 human neuroblastoma cells. The description is as above. The note with it: NB-1691 (WT); for Max Combo Effect: in % (unit assumed). The arrangement: key to Max Combo Effect: growth inhibition scale; 100 = stasis. How it is done:
as §1, §2, §3, §4, §5, §6, §7, §8, §9

The subject of assay [5] is NB-SD human neuroblastoma cells. Described as above. The arrangement: key to Max Combo Effect: growth inhibition scale; 100 = stasis. The note with it: NB-SD (F1174L); for Max Combo Effect: in % (unit assumed). How it is done: as §1, §2, §3, §4, §5, §6, §7, §8, §9
Assay [6] concerns NLF human neuroblastoma cells. The description is as above. Also on record: key to Max Combo Effect: growth inhibition scale; 100 = stasis. The note with it: NLF (WT). The protocol:
as §1, §2, §3, §4, §5, §6, §7, §8, §9

The subject of assay [7] is SH-SY5Y human neuroblastoma cells. Described as above. Also on record: key to Max Combo Effect: growth inhibition scale; 100 = stasis. To be noted: SH-SY5Y (F1174L). The protocol:
as §1, §2, §3, §4, §5, §6, §7, §8, §9

Assay [8] has as its system SK-N-BE(2) human neuroblastoma cells. The assay is described as above. The note with it: SK-N-BE(2) (WT). Also on record: key to Max Combo Effect: growth inhibition scale; 100 = stasis. How it is done:
as §1, §2, §3, §4, §5, §6, §7, §8, §9

Assay [9] concerns SK-N-FI human neuroblastoma cells. Described as above. The note with it: SK-N-FI (WT); for Max Combo Effect: in % (unit assumed). Also on record: key to Max Combo Effect: growth inhibition scale; 100 = stasis. The protocol:
as §1, §2, §3, §4, §5, §6, §7, §8, §9

The test system of assay [10] is panel of human neuroblastoma cell lines (ALK mutant and wild type). Briefly: Loewe additivity (CHALICE) synergy screen, results over the whole panel. The note with it: for Single-agent efficacy over the panel (self-cross scatter plots): Example A, FIGS. 4A, 4B, 15 cell lines. The protocol:
as §1, §2
The statistical variation of the synergy scores tabulated in Tables 2 and 3 were graphically illustrated by a Box Plot (FIG. 3). […] The ALK×ALK and CDK4/6×CDK4/6 combination is moderately sygergistic with synergy score at 1.011 (sd=0.4) and 1.16 (sd=0.43), respectively. In ALK normal cells, the combinations and the self-cross treatments were not sygeristic with synergistic score of about 0.5, but similarly large standard deviations.
For visual identification for strongly synergistic compositions, the data in Tables 2 and 3 were presented in scatter plots (FIGS. 4 A-C) where maximum combination efficacy were plotted against the synergy scores. Only data from two of the three ALK inhibitors, compounds A1 and A2 were included. In a scatter plot, a vertical shift implies additive effect; a right shift implies synergistic interactions and a diagonal shift implies synergy with a boost in efficacy. Synergistic combination hits are those in the upper right quadrant where the synergy score is >2 and the maximum efficacy is >100.
as §3, §4, §5
Synergistic combinations were identified based on the Loewe Addivity Model.

`Cc1cc(Nc2ncc(Cl)c(Nc3ccccc3S(=O)(=O)C(C)C)n2)c(OC(C)C)cc1C1CCNCC1` [Compound A1, 5-chloro-N2-(2-isopropoxy-5-methyl-4-(piperidin-4-yl)phenyl)-N4-[2-(propane-2-sulfonyl)-phenyl]-pyrimidine-2,4-diamine]: the “Synergy score (Mean)” value in assay [1] (CHP-134 (ALK WT), Table 2) is 0.223; in assay [2] (IMR-5 (ALK WT), Table 2) it was 0.884; in assay [3] (Table 2) it was 0.900; in [4] (Table 2) it was 0.760; in [5] (Table 2), 0.908; in [6] (Table 2), 0.152. The “Synergy score (Mean)” value in assay [7] (Table 2) came out at 0.638; in assay [8] (Table 2), 0.246; in [9] (Table 2) it was 1.135. The “Max Combo Effect” value in [1] (CHP-134 (ALK WT), Table 2) was found to be 26.1; in [2] (IMR-5 (ALK WT), Table 2), 80.4; in [3] (Table 2), 97.7; in assay [4] (Table 2), 111.9; in assay [5] (Table 2), 141.5; in [6] (Table 2), 27.1. The “Max Combo Effect” value in assay [7] (Table 2) came to 91.5; in assay [8] (Table 2), 25.2; in assay [9] (Table 2), 59.7. Further, the “Mean of synergy scores over the cell lines” value in assay [10] (15 cell lines of Table 2) is 0.841. Moreover, the “Median of synergy scores over the cell lines” value in [10] (15 cell lines of Table 2) is listed as 0.884. In addition, the “Single-agent efficacy over the panel (self-cross scatter plots)” value in assay [10] is “preferential single-agent efficacy for the ALK disease cell lines over the ALK normal cell lines”. The “Efficacy and synergy over the panel (scatter plots)” value in assay [10] (Example G, FIG. 21, 16 cell lines) was “preferential single agent efficacy for the ALK Disease subset of cell lines over the ALK WT cell lines”.
On to `Cc1cc(Nc2nc(Nc3ccccc3S(=O)(=O)C(C)C)c3cn[nH]c3n2)c(OC(C)C)cc1C1CCN(C)CC1` [Compound A2, N6-(2-isopropoxy-5-methyl-4-(1-methylpiperidin-4-yl)phenyl)-N4-(2-(isopropylsulfonyl)phenyl)-1H-pyrazolo[3,4-d]pyrimidine-4,6-diamine], for which the “Synergy score (Mean)” value in assay [1] (CHP-134 (WT), Table 3) worked out at 0.10; in assay [2] (IMR-5 (WT), Table 3) it was 0.23; in assay [3] (Table 3), 0.64; in assay [4] (Table 3) it was 0.97; in assay [5] (Table 3), 1.38; in [6] (Table 3) it was 0.63. Also, the “Synergy score (Mean)” value in assay [8] (Table 3) was 0.47; in assay [9] (Table 3) it was 0.65. For the same compound, the “Max Combo Effect” value in assay [1] (CHP-134 (WT), Table 3) is 180.10; in [2] (IMR-5 (WT), Table 3), 179.71; in assay [3] (Table 3), 191.61; in assay [4] (Table 3), 196.56; in assay [5] (Table 3), 195.92; in [6] (Table 3) it was 183.68. The results for the “Max Combo Effect” value in assay [8] (Table 3) and in assay [9] (Table 3) were 177.26 and 161.68, respectively. The “Single-agent efficacy over the panel (self-cross scatter plots)” value in assay [10] is reported as “preferential single-agent efficacy for the ALK disease cell lines over the ALK normal cell lines”.
Turning to `C[C@@H](Oc1cc(-c2cnn(C3CCNCC3)c2)cnc1N)c1c(Cl)ccc(F)c1Cl` [Compound A3, (R)-3-(1-(2,6-dichloro-3-fluorophenyl)ethoxy)-5-(1-(piperidin-4-yl)-1H-pyrazol-4-yl)pyridin-2-amine, reference compound], the “Synergy score (Mean)” value worked out at 0.02 in assay [1] (CHP-134 (WT), Table 3); 0.73 in assay [2] (IMR-5 (WT), Table 3); 0.47 in [3] (Table 3); 0.21 in [4] (Table 3); 0.84 in [5] (Table 3); 0.08 in assay [6] (Table 3). For the same compound, the entries for the “Synergy score (Mean)” value in [7] (Table 3) and in assay [8] (Table 3) were 0.98 and 0.02, respectively. The “Max Combo Effect” value in [1] (CHP-134 (WT), Table 3) worked out at 10.05; in assay [2] (IMR-5 (WT), Table 3), 99.95; in assay [3] (Table 3) it was 134.74; in assay [4] (Table 3), 36.53; in [5] (Table 3), 75.54; in [6] (Table 3), 29.10. Moreover, the “Max Combo Effect” value stood at 141.61 in assay [7] (Table 3), 10.76 in assay [8] (Table 3) and 20.37 in assay [9] (Table 3).

The values above are taken from patent publication US20160361314A1, “COMBINATION OF AN ALK INHIBITOR AND A CDK INHIBITOR FOR THE TREATMENT OF CELL PROLIFERATIVE DISEASES” (NOVARTIS AG, priority 2013, published 2016).
